Experimental findings from publication PMC5110245, “Identification and reconstitution of the rubber biosynthetic machinery on rubber particles from Hevea brasiliensis” (eLife, 2016) are described below.

What all share (type): biochemical
The target of one test is T1, HRT1–HRBP–REF (Hevea brasiliensis, UniProt Q8L5B7).
T1 construct: gene Hpt4; full-length CDSs, wheat germ cell-free co-translation onto CHAPS-washed Hevea rubber particles (WRPs); HRBP His6-tagged; stoichiometry not known; endogenous background present; Rubber elongation factor protein
T1 sequence (P15252 2-138, one chain of several): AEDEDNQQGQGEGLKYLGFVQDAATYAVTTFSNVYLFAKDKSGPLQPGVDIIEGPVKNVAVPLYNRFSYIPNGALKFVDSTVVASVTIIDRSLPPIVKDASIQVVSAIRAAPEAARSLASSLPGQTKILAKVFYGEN
T1 sequence (A0A1E1GJI0 entry or part of it, one chain of several, further chain): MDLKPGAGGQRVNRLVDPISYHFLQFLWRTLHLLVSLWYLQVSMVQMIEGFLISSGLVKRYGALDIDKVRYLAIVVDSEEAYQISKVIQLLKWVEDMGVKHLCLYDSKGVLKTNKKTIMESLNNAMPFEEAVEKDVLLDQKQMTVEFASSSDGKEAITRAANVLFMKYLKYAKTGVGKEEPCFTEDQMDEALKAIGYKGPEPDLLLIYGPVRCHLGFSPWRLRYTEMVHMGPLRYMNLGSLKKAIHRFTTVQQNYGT
In words: […]-IPP incorporation into rubber, allylic substrate dependency. To be noted: allylic primer 15 µM; 100 µM [4-14C]IPP, 5 mM MgCl2, pH 7.5, 30 °C, 8 h; on WRPs.

The next test concerns the target T2, HRT1 (Hevea brasiliensis, UniProt Q8L5B7).
T2 construct: gene Hpt4; full-length CDS in pEU-E01-His-TEV-MCS-N2; wheat germ cell-free translation onto CHAPS-washed Hevea rubber particles (WRPs), which keep small amounts of endogenous proteins
T2 sequence (Q8L5B7 1-290): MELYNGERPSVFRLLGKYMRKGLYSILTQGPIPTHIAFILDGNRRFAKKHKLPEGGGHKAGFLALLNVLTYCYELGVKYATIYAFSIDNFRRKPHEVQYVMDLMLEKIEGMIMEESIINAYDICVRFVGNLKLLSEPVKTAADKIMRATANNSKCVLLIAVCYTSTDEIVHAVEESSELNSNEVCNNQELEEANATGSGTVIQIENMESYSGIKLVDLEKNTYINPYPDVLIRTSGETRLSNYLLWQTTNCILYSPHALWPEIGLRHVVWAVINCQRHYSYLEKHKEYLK
The experiment in a line: […]-IPP incorporation into rubber, net of vector-control WRPs. Particulars: 15 µM FPP, 5 mM MgCl2, pH 7.5, 30 °C; on WRPs; labelled compound.

The next test deals with T3, LsCPT3-LsCPTL2 (Lactuca sativa, UniProt A0A0A0QMT0).
T3 construct: full-length synthetic CDSs (LsCPT3 in pEU-E01-His-TEV-MCS-N2, LsCPTL2 in pEU-E01-His-TEV-MCS-C1); wheat germ cell-free co-translation onto CHAPS-washed Hevea rubber particles (WRPs); with cis-prenyltransferase-like 2
T3 sequence (A0A0A0QMT0 1-296): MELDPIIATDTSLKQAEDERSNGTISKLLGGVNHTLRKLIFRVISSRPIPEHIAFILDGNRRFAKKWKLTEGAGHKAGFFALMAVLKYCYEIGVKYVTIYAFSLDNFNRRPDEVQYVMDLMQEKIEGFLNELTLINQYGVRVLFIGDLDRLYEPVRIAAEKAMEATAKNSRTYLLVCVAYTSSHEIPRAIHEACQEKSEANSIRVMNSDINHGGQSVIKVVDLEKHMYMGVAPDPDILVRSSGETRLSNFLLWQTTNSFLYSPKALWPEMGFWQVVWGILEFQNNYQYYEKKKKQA
T3 sequence (A0A0A0QP73 1-244 partner): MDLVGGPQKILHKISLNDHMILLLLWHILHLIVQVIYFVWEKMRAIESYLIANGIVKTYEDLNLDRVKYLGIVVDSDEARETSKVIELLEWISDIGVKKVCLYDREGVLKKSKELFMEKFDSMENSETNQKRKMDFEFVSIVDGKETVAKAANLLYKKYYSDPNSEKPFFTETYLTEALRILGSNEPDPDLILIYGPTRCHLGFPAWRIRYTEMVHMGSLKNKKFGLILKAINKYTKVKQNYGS
Described as above. Particulars: 15 µM FPP, 5 mM MgCl2, pH 7.5, 30 °C; on Hevea WRPs; labelled compound.

`CC(C)=CCC/C(C)=C/CC/C(C)=C/COP(=O)(O)OP(=O)(O)O` [FPP, E,E-farnesyl diphosphate]: the “14C-IPP incorporation into rubber, allylic substrate dependency” value on HRT1–HRBP–REF was “the RTase was most active with FPP (C15)”.

With `C=C(C)CCOP(=O)(O)OP(=O)(O)O` [IPP, isopentenyl diphosphate], the “14C-IPP incorporation into rubber, net of vector-control WRPs” value on HRT1 is recorded as “introduction of HRT1 onto WRPs distinctly increased the RTase activity (Figure 9A)”; at LsCPT3-LsCPTL2, “Co-expression of LsCPTL2 with LsCPT3 resulted in an increase of the activity of LsCPT3”.
